Where “and” joins values, the source holds several entries; their conditions need not be identical. Equal values may be shown once.
How the values were obtained:
[1] = Malodor evaluation panel, cigarette smoke on cotton swatches; settings: for (Score of Acid) − (Score of Combination) / (Score of Ketone) − (Score of Combination): cigarette smoke malodor; for Score of Ketone Alone @ 1%: average of 14, Table 3
Method: The source of the malodor tested was cigarette smoke. Swatches of 100% untreated cotton fabric were cut into 15 cm (6-inch) squares and were placed in large plastic containers. Two cigarettes were smoked up inside the plastic containers containing the swatches with closed lids. The environment inside each closed container was allowed to equilibrate for 24 hours. Onto each swatch, 3.0 grams of a composition was sprayed. As a control, 3.0 grams of water was sprayed on certain swatches. Each swatch was placed in the middle of a two by two foot (61×61 cm) cubicle and all doors were closed. Actual testing began after thirty minutes. Each member of the panel was asked to sniff the malodor control first and was notified that the control has a rating of 7—indicating very strong malodor. They were then asked to proceed to sniff the other samples and provide a rating for malodor remaining. Thus, the remaining malodor was evaluated on a sliding scale, with 1 being very weak malodor. The panelists were instructed to ignore any fragrance that they may detect and rate only the malodor. […] Neodol 91-8 and the fabric spray base were the same as those described in Example 1.

[2] = Malodor evaluation panel, synthetic bathroom malodor on cotton swatches
Description: A malodor evaluation panel of 14 persons was assembled and asked to evaluate the odor neutralizing effectiveness of citric acid and dihydro-β-ionone, either alone or in combination. The source of the malodor tested was synthetic bathroom malodor.
Swatches of 100% untreated cotton fabric were cut into 15 cm (6-inch) squares and were placed on weighing boats. 0.5 grams of synthetic bathroom malodor was pipetted onto each of the swatches. A period of three minutes was allowed for the malodor to be absorbed by the fabric.
Onto each swatch, 3.0 grams of a composition was sprayed. As a control, 3.0 grams of water was sprayed on certain swatches.
Each swatch was placed in the middle of a two by two foot (61×61 cm) cubicle and all doors were closed. Actual testing began after thirty minutes.
They were then asked to proceed to sniff the other samples and provide a rating for malodor remaining. Thus, the remaining malodor was evaluated on a sliding scale, with 1 being very weak malodor. The panelists were instructed to ignore any fragrance that they may detect and rate only the malodor.
For the spray compositions containing citric acid or dihydro-β-ionone alone, each spray composition (having a total weight of 20.00 g) consisted of:
For the spray composition containing both citric acid and dihydro-β-ionone, the spray composition (having a total weight of 20.00 g) consisted of:
Neodol 91-8 and the fabric spray base were the same as those described in Example 1.
Each panelist tested citric acid, dihydro-β-ionone, and their combinations. The scores reported are therefore the average of 14 replications.
The results are summarized in Table 6, in which the scores reported are the average of 14 replications.

[3] = as above; settings: for Score of Ketone Alone @ 1%: average of 14; for Score of Combination @ 1% + 1%: ketone 1% + undecylenic acid 1%; for (Score of Acid) − (Score of Combination) / (Score of Ketone) − (Score of Combination): synthetic bathroom malodor; for (Score of Acid) − (Score of Combination): acid = undecylenic acid; for (Score of Ketone) − (Score of Combination): combination with undecylenic acid
[4] = Malodor evaluation panel, cat urine on cotton swatches; set-up: key to (Score of Ketone) − (Score of Combination) / (score of citric acid) − (score of combination): difference of malodor scores, 1 = very weak to 7 = very strong (control); settings: for (Score of Ketone) − (Score of Combination) / (score of citric acid) − (score of combination): cat urine malodor, combination with citric acid; for Score of combination 1% + 1% / Score alone 1% (alicyclic ketone): remaining cat urine malodor; for Score of combination 1% + 1%: scale 1-7, ketone 1% + citric acid 1% in spray, average of 14; for Score alone 1% (alicyclic ketone): scale 1 very weak to 7 (control, very strong), ketone 1% in spray, average of 14 panelists
Description: The source of the malodor tested was cat urine. […] A period of three minutes was allowed for the urine to be absorbed by the fabric. Onto each swatch, 3.0 grams of a composition was sprayed. As a control, 3.0 grams of water was sprayed on certain swatches. Each swatch was placed in the middle of a two by two foot (61×61 cm) cubicle and all doors were closed. Actual testing began after thirty minutes. Each member of the panel was asked to sniff the malodor control first and was notified that the control has a rating of 7—indicating very strong malodor. They were then asked to proceed to sniff the other samples and provide a rating for malodor remaining. Thus, the remaining malodor was evaluated on a sliding scale, with 1 being very weak malodor. The panelists were instructed to ignore any fragrance that they may detect and rate only the malodor. […] The fabric spray base was an aqueous solution containing 75% distilled water, 20% ethanol, and 5% of non-ionic surfactant. […] The scores reported are therefore the average of 14 replications. The ionones and irones tested were racemic mixtures of their respective α, β, and γ-isomers. The table sets forth what is believed to be the dominant isomer. Apparent duplications (Tests 5, 6 and 8; Tests 10 and 11) are tests on substances obtained from different sources, and have different mixtures of isomers. […] The ionones tested were mixtures of α, β and γ isomers; the table sets for the dominant isomer.

[5] = remaining synthetic bathroom malodor, scale 1-7, Table 6
[6] = remaining synthetic bathroom malodor, scale 1-7
[7] = remaining cigarette smoke malodor, scale 1-7
[8] = remaining cigarette smoke malodor, scale 1-7, ketone 1% + citric acid 1%

Compound | Score of Ketone Alone @ 1% [3, 5] | Score of Combination @ 1% + 1% [3, 6] | (Score of Acid) − (Score of Combination) [3] | (Score of Ketone) − (Score of Combination) [3] | (Score of Ketone) − (Score of Combination) [4] | (score of citric acid) − (score of combination) [4] | Score of combination 1% + 1% [4] | Score alone 1% (alicyclic ketone) [4] | also measured
citric acid | – | – | – | – | – | – | – | – | Score of Citric Acid @ 1% ([1]; remaining cigarette smoke malodor, scale 1-7, citric acid alone, in the test of that line): 3.90 and 4.80; Score of Citric Acid @ 1% ([2]; remaining synthetic bathroom malodor, scale 1-7, citric acid alone): 5.00
CCC(=O)C=CC1C(C)=CCCC1(C)C (centres unmarked) [1-(2,6,6-trimethyl-2-cyclohexen-1-yl)pent-1-en-3-one] | 2.80 | 2.70 | 2.50 | 0.10 | – | – | – | – | –
CC(=O)/C=C/C1=C(C)CCCC1(C)C [β-ionone] | 4.60 | 3.30 | 1.80 | 1.30 | 0.70 | 1.00 | 3.10 | 3.80 | –
CC(C)(C)C1CCCCC1=O (centres unmarked) [2-tert-butylcyclohexanone] | 4.50 | 4.10 | 0.20 | 0.40 | – | – | – | – | –
C=CCCCCCCCCC(=O)O [undecylenic acid] | – | – | – | – | – | – | – | – | Score of Undecylenic Acid @ 1% ([1]; remaining cigarette smoke malodor, scale 1-7, undecylenic acid alone): 4.20; Score of Undecylenic Acid @ 1% ([3]; remaining synthetic bathroom malodor, scale 1-7, undecylenic acid alone, in the test of that line): 5.00 and 4.30 and 5.10 and 5.20
CC(=O)/C=C/C1C(C)=CCC(C)C1(C)C (stereo not drawn) [α-irone] | – | – | – | – | 0.20 | 0.00 | 3.70 | 3.90 | –
CC(=O)/C=C/C1C(C)=CCCC1(C)C (stereo not drawn) [α-ionone] | – | – | – | – | 1.10 | 0.10 | 3.10 | 4.20 | –
CC(=O)CCC1=C(C)CCCC1(C)C [dihydro-β-ionone] | – | – | – | – | 1.40 | 0.80 | 2.50 | 3.90 | Score of Ketone Alone @ 1% ([3]; remaining synthetic bathroom malodor, scale 1-7, Table 5): 3.70; Score of Combination @ 1% + 1% ([2]; remaining synthetic bathroom malodor, scale 1-7, ketone 1% + citric acid 1%): 3.60; (Score of Acid) − (Score of Combination) ([2]; synthetic bathroom malodor, acid = citric acid): 1.40; (Score of Ketone) − (Score of Combination) ([2]; synthetic bathroom malodor, combination with citric acid): 0.10
CCC(=O)/C=C/C1=C(C)CCCC1(C)C [methyl β-ionone] | – | – | – | – | 0.10 | 0.90 | 3.40 | 3.50 | –
CCC(C)(C)C1CCC(=O)CC1 [4-tert-pentylcyclohexanone] | – | – | – | – | 0.60 | 0.50 | 2.90 | 3.50 | (Score of Acid) − (Score of Combination) ([1]; acid = citric acid): 0.80; (Score of Ketone) − (Score of Combination) ([1]; combination with citric acid): 0.30; Score of Ketone Alone @ 1% [1, 7]: 3.40; Score of Combination @ 1% + 1% [1, 8]: 3.10
methyl α-ionone | 3.80 | 3.40 | 1.60 | 0.40 | – | – | – | – | (Score of Acid) − (Score of Combination) ([1]; acid = citric acid): 1.10; (Score of Acid) − (Score of Combination) ([1]; acid = undecylenic acid): 1.40; (Score of Ketone) − (Score of Combination) ([1]; combination with citric acid): 0.50; (Score of Ketone) − (Score of Combination) ([1]; combination with undecylenic acid): 0.10; Score of Ketone Alone @ 1% [1, 7]: 4.20; Score of Combination @ 1% + 1% [1, 8]: 3.70; Score of Combination @ 1% + 1% ([1]; remaining cigarette smoke malodor, scale 1-7, ketone 1% + undecylenic acid 1%): 2.80
